In patent US12060351B2, “Thiadiazole IRAK4 inhibitors” (Gilead Sciences, Inc., priority 2018, dated 2024):
Read-outs that look alike come from different tables or passages of the source.

What was measured:
[1] = molecular target: T1, IRAK4 enzyme (Homo sapiens, UniProt Q9NWZ3); assay: IRAK4 Biochemical Assay (TR-FRET, STK1 KinEASE); settings: 500 μM ATP, Table 2 second part (compounds 33-343), read-out: IC50 IRAK4-HTBS
T1 construct: purchased Carna Biosciences, Chuo-ku, Kobe, Japan
T1 sequence (Q9NWZ3 1-460): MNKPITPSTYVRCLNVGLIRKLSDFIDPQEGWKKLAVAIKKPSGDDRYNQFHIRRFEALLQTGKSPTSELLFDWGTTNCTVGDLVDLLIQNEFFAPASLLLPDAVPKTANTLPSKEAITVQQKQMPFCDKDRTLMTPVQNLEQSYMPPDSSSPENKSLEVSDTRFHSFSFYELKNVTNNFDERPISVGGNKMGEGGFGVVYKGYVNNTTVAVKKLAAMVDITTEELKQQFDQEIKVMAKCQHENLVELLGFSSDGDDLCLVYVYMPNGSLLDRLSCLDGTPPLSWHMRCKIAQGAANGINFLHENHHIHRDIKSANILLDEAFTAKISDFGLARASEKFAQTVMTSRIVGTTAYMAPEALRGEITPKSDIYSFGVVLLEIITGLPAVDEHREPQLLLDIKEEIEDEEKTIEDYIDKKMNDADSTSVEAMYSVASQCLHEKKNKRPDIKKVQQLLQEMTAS
Summary of the method: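 Human IRAK4 (0.75 nM) preincubated 15 min with compound and 2 μM STK1 peptide, then reacted 120 min at room temperature with 500 μM ATP in HEPES pH 7.0 buffer with MgCl2 and DTT. EDTA stop with Cryptate anti-phosphopeptide antibody and tracer, 60 min; TR-FRET read as 665/615 nm ratio.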

[2] = test system: TNFα; assay: IRAK4 Monocyte TNFα Cell Based Assay (LPS-stimulated, TR-FRET TNFα detection); set-up: species or system human; settings: Homo sapiens, Monocyte, read-out: EC50 MONO TNF HTRF
Summary of the method: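 Monocytes (5,000 cells/well) treated with compound (0.1% DMSO) for 1 hour at 37° C, then stimulated with 50 pg/ml LPS for 4 hours. TNFα in medium quantified by TR-FRET two-antibody detection after overnight room-temperature incubation. Percent of control calculated against unstimulated (0%) and LPS-stimulated (100%) cells.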

[3] = human monocytes, LPS-stimulated, Table 2 second part (compounds 33-343)

SMILES | IC50 [1] [nM] | EC50 [2, 3] [nM] | EC50 [2] [nM]
CNc1cc(-c2ccc3cc(C#N)cnn23)ncc1-c1nnc(N2C[C@H]3CC[C@@H](C2)[C@@H]3NC(C)=O)s1 [Compound 292, N-((1R,5S,8s)-3-(5-(6-(3-cyanopyrrolo[1,2-b]pyridazin-7-yl)-4-(methylamino)pyridin-3-yl)-1,3,4-thiadiazol-2-yl)-3-azabicyclo[3.2.1]octan-8-yl)acetamide] | 0.2 | 6.7 | –
C[C@H](C#N)Nc1cc(-c2ccc3cc(C#N)cnn23)ncc1-c1nnc(N2C[C@H]3CC[C@@H](C2)[C@@H]3NC(=O)C(C)(C)O)s1 [Example 86, N-((1R,5S,8S)-3-(5-(4-(((R)-1-cyanoethyl)amino)-6-(3-cyanopyrrolo[1,2-b]pyridazin-7-yl)pyridin-3-yl)-1,3,4-thiadiazol-2-yl)-3-azabicyclo[3.2.1]octan-8-yl)-2-hydroxy-2-methylpropanamide] | 0.65 | 0.6 | –
CCOC(=O)Cc1nnc(-c2cnc(-c3ccc4cc(C#N)cnn34)cc2NC(C)C)s1 [Example 318, ethyl 2-(5-(6-(3-cyanopyrrolo[1,2-b]pyridazin-7-yl)-4-(isopropylamino)pyridin-3-yl)-1,3,4-thiadiazol-2-yl)acetate] | 0.94 | 102 | –
CC(=O)N[C@H]1CC[C@H](c2nnc(-c3cnc(-c4ccc5cc(C#N)cnn45)cc3N[C@H]3C[C@@](C)(O)C3)s2)CC1 [Compound 243, N-((1R,4r)-4-(5-(6-(3-cyanopyrrolo[1,2-b]pyridazin-7-yl)-4-(((1s,3S)-3-hydroxy-3-methylcyclobutyl)amino)pyridin-3-yl)-1,3,4-thiadiazol-2-yl)cyclohexyl)acetamide] | 0.55 | 6.4 | –
COC(=O)NC[C@H]1C[C@H](Nc2cc(-c3ccc4cc(C#N)cnn34)ncc2-c2nnc([C@H]3CC[C@H](NC(=O)N4CCOCC4)CC3)s2)C1 [Example 143, methyl (((1R,3r)-3-((2-(3-cyanopyrrolo[1,2-b]pyridazin-7-yl)-5-(5-((1r,4R)-4-(morpholine-4-carboxamido)cyclohexyl)-1,3,4-thiadiazol-2-yl)pyridin-4-yl)amino)cyclobutyl)methyl)carbamate] | 0.34 | 3.1 | –
CC(C)Nc1cc(-c2ccc3cc(C#N)cnn23)ncc1-c1nnc([C@H]2CC[C@@H](NC(=O)C(C)(C)O)CC2)s1 [Compound 312, N-((1s,4s)-4-(5-(6-(3-cyanopyrrolo[1,2-b]pyridazin-7-yl)-4-(isopropylamino)pyridin-3-yl)-1,3,4-thiadiazol-2-yl)cyclohexyl)-2-hydroxy-2-methylpropanamide] | 0.91 | 17.5 | –
CC(=O)N[C@H]1[C@@H]2C[C@H]1CN(c1nnc(-c3cnc(-c4ccc5cc(C#N)cnn45)cc3NC(C)C)s1)C2 [Example 45, N-((1R,5S,6r)-3-(5-(6-(3-cyanopyrrolo[1,2-b]pyridazin-7-yl)-4-(isopropylamino)pyridin-3-yl)-1,3,4-thiadiazol-2-yl)-3-azabicyclo[3.1.1]heptan-6-yl)acetamide] | 1.13 | – | 11.8
CC(C)Nc1cc(-c2ccc3cc(C#N)cnn23)ncc1-c1nnc(C(=O)N[C@H]2CC[C@H](O)CC2)s1 [Example 220, 5-(6-(3-cyanopyrrolo[1,2-b]pyridazin-7-yl)-4-(isopropylamino)pyridin-3-yl)-N-((1r,4r)-4-hydroxycyclohexyl)-1,3,4-thiadiazole-2-carboxamide] | 1.39 | 131 | –
CC(C)Nc1cc(-c2ccc3cc(C#N)cnn23)ncc1-c1nnc(N2C[C@H]3CC[C@@H](C2)[C@@H]3NC(=O)C2CCN(C)CC2)s1 [Example 100, N-((1R,5S,8s)-3-(5-(6-(3-cyanopyrrolo[1,2-b]pyridazin-7-yl)-4-(isopropylamino)pyridin-3-yl)-1,3,4-thiadiazol-2-yl)-3-azabicyclo[3.2.1]octan-8-yl)-1-methylpiperidine-4-carboxamide] | 0.8 | 2.1 | –
COC(=O)N[C@H]1CC[C@H](c2nnc(-c3cnc(-c4ccc5cc(C#N)cnn45)cc3NC(C)C)s2)CC1 [Example 126, methyl ((1r,4r)-4-(5-(6-(3-cyanopyrrolo[1,2-b]pyridazin-7-yl)-4-(isopropylamino)pyridin-3-yl)-1,3,4-thiadiazol-2-yl)cyclohexyl)carbamate] | 0.89 | 26.2 | –
CC(=O)N[C@@H]1[C@@H]2C[C@H]1CN(c1nnc(-c3cnc(-c4ccc5cc(C#N)cnn45)cc3NC3(C)COC3)s1)C2 [Example 175, N-((1R,5S,6s)-3-(5-(6-(3-cyanopyrrolo[1,2-b]pyridazin-7-yl)-4-((3-methyloxetan-3-yl)amino)pyridin-3-yl)-1,3,4-thiadiazol-2-yl)-3-azabicyclo[3.1.1]heptan-6-yl)acetamide] | 0.57 | – | 9
CC(=O)N[C@@H]1[C@@H]2C[C@H]1CN(c1nnc(-c3cnc(-c4ccc5cc(C#N)cnn45)cc3N[C@H](C)C#N)s1)C2 [Example 174, N-((1R,5S,6S)-3-(5-(4-(((R)-1-cyanoethyl)amino)-6-(3-cyanopyrrolo[1,2-b]pyridazin-7-yl)pyridin-3-yl)-1,3,4-thiadiazol-2-yl)-3-azabicyclo[3.1.1]heptan-6-yl)acctamide] | 0.49 | – | 3.5
COC(=O)N[C@H]1CC[C@@H](c2nnc(-c3cnc(-c4ccc5cc(C#N)cnn45)cc3NC3COC3)s2)CC1 [Example 205, methyl ((1s,4s)-4-(5-(6-(3-cyanopyrrolo[1,2-b]pyridazin-7-yl)-4-(oxetan-3-ylamino)pyridin-3-yl)-1,3,4-thiadiazol-2-yl)cyclohexyl)carbamate] | 0.62 | 20.1 | –
CC(C)Nc1cc(-c2ccc3cc(C#N)cnn23)ncc1-c1nnc([C@H]2C[C@@](C)(O)C2)s1 [Example 199, 7-(5-(5-((1s,3s)-3-hydroxy-3-methylcyclobutyl)-1,3,4-thiadiazol-2-yl)-4-(isopropylamino)pyridin-2-yl)pyrrolo[1,2-b]pyridazine-3-carbonitrile] | 0.69 | 38.3 | –
CC(C)Nc1cc(-c2ccc3cc(C#N)cnn23)ncc1-c1nnc(N2C[C@H]3CC[C@@H](C2)[C@@H]3N)s1 [Example 60, 7-(5-(5-((1R,5S,8s)-8-amino-3-azabicyclo[3.2.1]octan-3-yl)-1,3,4-thiadiazol-2-yl)-4-(isopropylamino)pyridin-2-yl)pyrrolo[1,2-b]pyridazine-3-carbonitrile] | 0.97 | 8.5 | –
CC(=O)N[C@H]1[C@@H]2CC[C@H]1CN(c1nnc(-c3cnc(-c4ccc5cc(C#N)cnn45)cc3NC(C)C)s1)C2 [Example 39, N-((1R,5S,8r)-3-(5-(6-(3-cyanopyrrolo[1,2-b]pyridazin-7-yl)-4-(isopropylamino)pyridin-3-yl)-1,3,4-thiadiazol-2-yl)-3-azabicyclo[3.2.1]octan-8-yl)acetamide] | 0.89 | 10.4 | –
CC(C)Nc1cc(-c2ccc3cc(C#N)cnn23)ncc1-c1nnc(C(=O)N[C@H]2C[C@@](C)(O)C2)s1 [Example 218, 5-(6-(3-cyanopyrrolo[1,2-b]pyridazin-7-yl)-4-(isopropylamino)pyridin-3-yl)-N-((1s,3s)-3-hydroxy-3-methylcyclobutyl)-1,3,4-thiadiazole-2-carboxamide] | 1.12 | 858 | –
